Results from patent US6355799B1, “Substituted benzene compounds, process for their preparation, and herbicidal and defoliant compositions containing them” (ISK Americas Incorporated, priority 1997, dated 2002).

Legend:
Assay type in all cases: in vivo
[1] = system: redroot pigweed (Amaranthus retroflexus, AMARE); test: Pre-emerge test, greenhouse herbicide activity screening; details: pre-emerge, 14 days after application, rating scale 0-100
Outline: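 Herbicidal damage is scored 0 (none) to 100 (complete plant death) two weeks after a simulated field spray. Rates span 15–1000 g ai/ha, delivered in acetone at 187 l/ha. For post-emergence treatments, plants have 2–3 leaves and the spray carries 0.25% v/v non-ionic surfactant.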

[2] = system: barnyardgrass (Echinochloa crus-galli, ECHCG); test: as above; details: pre-emerge, 14 days after application, rating scale 0-100
Outline: (§1)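 Compounds in acetone were track-sprayed at 187 l/ha, 15–1000 g ai/ha, onto sandy loam pots. Pre-emerge seeds were sown one day before spraying, with surface watering afterwards. Post-emerge plants were at the 2–3 leaf stage and sprayed with 0.25% v/v non-ionic surfactant. Injury was rated 0–100 at 14 days.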

[3] = system: green foxtail (Setaria viridis, SETVI); test: as above; details: pre-emerge, 14 days after application, rating scale 0-100
Outline: as §1

[4] = system: ivyleaf morningglory (Ipomoea hederacea, IPOHE); test: as above; details: pre-emerge, 14 days after application, rating scale 0-100
Outline: as §1

[5] = system: johnsongrass (Sorghum halepense, SORHA); test: as above; details: pre-emerge, 14 days after application, rating scale 0-100
Outline: as §1

[6] = system: lambsquarters (Chenopodium album, CHEAL); test: as above; details: pre-emerge, 14 days after application, rating scale 0-100
Outline: as §1

[7] = system: large crabgrass (Digitaria sanguinalis, DIGSA); test: as above; details: pre-emerge, 14 days after application, rating scale 0-100
Outline: as §1

[8] = system: sicklepod (Cassia obtusifolia, CASOB); test: as above; details: pre-emerge, 14 days after application, rating scale 0-100
Outline: as §1

[9] = system: velvetleaf (Abutilon theophrasti, ABUTH); test: as above; details: pre-emerge, 14 days after application, rating scale 0-100
Outline: as §1

[10] = system: field corn (Zea mays L., var. Dekalb 535, CORN); test: Pre-emerge test, crop safety; details: pre-emerge, 14 days after application, rating scale 0-100
Outline: (§2)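 Sandy loam pots; pre-emerge: sown 1 d pre-spray, surface-watered after, then bottom-watered. Post-emerge: sown 8–21 d before, 2–3 leaf stage, + 0.25% v/v NIS, bottom-watered. Acetone, 187 l/ha track spray, 15–1000 g ai/ha. 0–100 injury score, day 14.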

[11] = system: upland rice (Oryza sp., var. Tebonnet, RICE); test: Pre-emerge test, crop safety; details: pre-emerge, 14 days after application, rating scale 0-100
Outline: as §2

[12] = system: barnyardgrass (Echinochloa crus-galli, ECHCG); test: Post-emerge test, greenhouse herbicide activity screening; details: post-emerge, 14 days after application, rating scale 0-100
Outline: (§3)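 Compounds in acetone were track-sprayed at 15-1000 g ai/ha (187 l/ha) on sandy loam pots: pre-emerge one day after seeding, post-emerge at 2-3 leaf stage with 0.25% v/v non-ionic surfactant. Phytotoxicity was rated 14 days later on a 0 (no damage) to 100 (complete death) scale.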

[13] = system: green foxtail (Setaria viridis, SETVI); test: as above; details: post-emerge, 14 days after application, rating scale 0-100
Outline: as §3

[14] = system: ivyleaf morningglory (Ipomoea hederacea, IPOHE); test: as above; details: post-emerge, 14 days after application, rating scale 0-100
Outline: as §3

[15] = system: johnsongrass (Sorghum halepense, SORHA); test: as above; details: post-emerge, 14 days after application, rating scale 0-100
Outline: as §3

[16] = system: lambsquarters (Chenopodium album, CHEAL); test: as above; details: post-emerge, 14 days after application, rating scale 0-100
Outline: as §3

[17] = system: large crabgrass (Digitaria sanguinalis, DIGSA); test: as above; details: post-emerge, 14 days after application, rating scale 0-100
Outline: as §3

[18] = system: redroot pigweed (Amaranthus retroflexus, AMARE); test: as above; details: post-emerge, 14 days after application
Outline: as §3

[19] = system: sicklepod (Cassia obtusifolia, CASOB); test: as above; details: post-emerge, 14 days after application, rating scale 0-100
Outline: as §3

[20] = system: velvetleaf (Abutilon theophrasti, ABUTH); test: as above; details: post-emerge, 14 days after application, rating scale 0-100
Outline: as §3

[21] = system: field corn (Zea mays L., var. Dekalb 535, CORN); test: Post-emerge test, crop safety; details: post-emerge, 14 days after application, rating scale 0-100
Outline: as §1

[22] = system: upland rice (Oryza sp., var. Tebonnet, RICE); test: Post-emerge test, crop safety; details: post-emerge, 14 days after application, rating scale 0-100
Outline: as §1

[23] = 63 g ai/ha, rating scale 0-100 (0 no damage, 100 complete death)
[24] = 250 g ai/ha, rating scale 0-100

For `COc1c(Cl)cc(F)c(-n2c(=O)cc(C(F)(F)F)n(C)c2=O)c1NN=C(C(F)(F)F)C(F)(F)F` [15-21], the “phytotoxicity rating AMARE” value ([1]; 63 g ai/ha) was 100, the “phytotoxicity rating AMARE” value ([1]; 250 g ai/ha) was 100 and the “phytotoxicity rating ECHCG” value ([2]; 63 g ai/ha) was 99. The “phytotoxicity rating ECHCG” value ([2]; 250 g ai/ha) was 100, the “phytotoxicity rating SETVI” value ([3]; 63 g ai/ha) was 100 and the “phytotoxicity rating SETVI” value ([3]; 250 g ai/ha) was 100. The “phytotoxicity rating IPOHE” value ([4]; 63 g ai/ha) was 100, the “phytotoxicity rating IPOHE” value ([4]; 250 g ai/ha) was 100 and the “phytotoxicity rating SORHA” value ([5]; 63 g ai/ha) was 100. For the same molecule, the “phytotoxicity rating SORHA” value ([5]; 250 g ai/ha) was 100, the “phytotoxicity rating CHEAL” value ([6]; 63 g ai/ha) was 100 and the “phytotoxicity rating CHEAL” value ([6]; 250 g ai/ha) was 100. For the same molecule, the “phytotoxicity rating DIGSA” value ([7]; 63 g ai/ha) was 100, the “phytotoxicity rating DIGSA” value ([7]; 250 g ai/ha) was 100 and the “phytotoxicity rating CASOB” value ([8]; 63 g ai/ha) was 100. The “phytotoxicity rating CASOB” value ([8]; 250 g ai/ha) was 100, the “phytotoxicity rating ABUTH” value ([9]; 63 g ai/ha) was 100 and the “phytotoxicity rating ABUTH” value ([9]; 250 g ai/ha) was 100. For the same molecule, the “phytotoxicity rating CORN” value ([10]; 63 g ai/ha) was 95, the “phytotoxicity rating CORN” value ([10]; 250 g ai/ha) was 100 and the “phytotoxicity rating RICE” value ([11]; 63 g ai/ha) was 99. The “phytotoxicity rating RICE” value ([11]; 250 g ai/ha) was 100, the “Post-emerge Herbicidal Activity ECHCG (phytotoxicity rating)” value (shortened to “Post-emerge Herbicidal Activity ECHCG”) ([12]; 63 g ai/ha) was 60 and the “Post-emerge Herbicidal Activity ECHCG” value ([12]; 250 g ai/ha) was 100. The “Post-emerge Herbicidal Activity SETVI (phytotoxicity rating)” value (“Post-emerge Herbicidal Activity SETVI” for short) ([13]; 63 g ai/ha) was 50, the “Post-emerge Herbicidal Activity SETVI” value ([13]; 250 g ai/ha) was 90 and the “Post-emerge Herbicidal Activity IPOHE (phytotoxicity rating)” value (“Post-emerge Herbicidal Activity IPOHE” below) ([14]; 63 g ai/ha) was 100. The “Post-emerge Herbicidal Activity IPOHE” value ([14]; 250 g ai/ha) was 100, the “Post-emerge Herbicidal Activity SORHA (phytotoxicity rating)” value (shortened to “Post-emerge Herbicidal Activity SORHA”) ([15]; 63 g ai/ha) was 40 and the “Post-emerge Herbicidal Activity SORHA” value ([15]; 250 g ai/ha) was 95. The “Post-emerge Herbicidal Activity CHEAL (phytotoxicity rating)” value (“Post-emerge Herbicidal Activity CHEAL” for short) ([16]; 63 g ai/ha) was 100, the “Post-emerge Herbicidal Activity CHEAL” value ([16]; 250 g ai/ha) was 100 and the “Post-emerge Herbicidal Activity DIGSA (phytotoxicity rating)” value (“Post-emerge Herbicidal Activity DIGSA” below) ([17]; 63 g ai/ha) was 30. The “Post-emerge Herbicidal Activity DIGSA” value ([17]; 250 g ai/ha) was 95, the “Post-emerge Herbicidal Activity AMARE (phytotoxicity rating)” value (shortened to “Post-emerge Herbicidal Activity AMARE”) [18, 23] was 95 and the “Post-emerge Herbicidal Activity AMARE” value [18, 24] was 100. The “Post-emerge Herbicidal Activity CASOB (phytotoxicity rating)” value (“Post-emerge Herbicidal Activity CASOB” for short) ([19]; 63 g ai/ha) was 100, the “Post-emerge Herbicidal Activity CASOB” value ([19]; 250 g ai/ha) was 100 and the “Post-emerge Herbicidal Activity ABUTH (phytotoxicity rating)” value (“Post-emerge Herbicidal Activity ABUTH” below) ([20]; 63 g ai/ha) was 100. For the same molecule, the “Post-emerge Herbicidal Activity ABUTH” value ([20]; 250 g ai/ha) was 100, the “Post-emerge Herbicidal Activity CORN (crop damage rating)” value (shortened to “Post-emerge Herbicidal Activity CORN”) ([21]; 63 g ai/ha) was 30 and the “Post-emerge Herbicidal Activity CORN” value ([21]; 250 g ai/ha) was 90. The “Post-emerge Herbicidal Activity RICE (crop damage rating)” value (from here on “Post-emerge Herbicidal Activity RICE”) ([22]; 63 g ai/ha) was 80 and the “Post-emerge Herbicidal Activity RICE” value ([22]; 250 g ai/ha) was 90.
For `COc1cc(Cl)cc(Cl)c1-n1c(=O)cc(C(F)(F)F)n(C)c1=O` [16-2], the “phytotoxicity rating AMARE” value ([1]; 63 g ai/ha) was 40, the “phytotoxicity rating AMARE” value ([1]; 250 g ai/ha) was 100 and the “phytotoxicity rating ECHCG” value ([2]; 63 g ai/ha) was 0. For the same molecule, the “phytotoxicity rating ECHCG” value ([2]; 250 g ai/ha) was 10, the “phytotoxicity rating SETVI” value ([3]; 63 g ai/ha) was 10 and the “phytotoxicity rating SETVI” value ([3]; 250 g ai/ha) was 60. For the same molecule, the “phytotoxicity rating IPOHE” value ([4]; 63 g ai/ha) was 10, the “phytotoxicity rating IPOHE” value ([4]; 250 g ai/ha) was 50 and the “phytotoxicity rating SORHA” value ([5]; 63 g ai/ha) was 0. For the same molecule, the “phytotoxicity rating SORHA” value ([5]; 250 g ai/ha) was 30, the “phytotoxicity rating CHEAL” value ([6]; 63 g ai/ha) was 80 and the “phytotoxicity rating CHEAL” value ([6]; 250 g ai/ha) was 100. The “phytotoxicity rating DIGSA” value ([7]; 63 g ai/ha) was 0, the “phytotoxicity rating DIGSA” value ([7]; 250 g ai/ha) was 50 and the “phytotoxicity rating CASOB” value ([8]; 63 g ai/ha) was 0. The “phytotoxicity rating CASOB” value ([8]; 250 g ai/ha) was 60, the “phytotoxicity rating ABUTH” value ([9]; 63 g ai/ha) was 75 and the “phytotoxicity rating ABUTH” value ([9]; 250 g ai/ha) was 100. The “phytotoxicity rating CORN” value ([10]; 63 g ai/ha) was 0, the “phytotoxicity rating CORN” value ([10]; 250 g ai/ha) was 0 and the “phytotoxicity rating RICE” value ([11]; 63 g ai/ha) was 0. For the same molecule, the “phytotoxicity rating RICE” value ([11]; 250 g ai/ha) was 0, the “Post-emerge Herbicidal Activity ECHCG” value ([12]; 63 g ai/ha) was 0 and the “Post-emerge Herbicidal Activity ECHCG” value ([12]; 250 g ai/ha) was 0. The “Post-emerge Herbicidal Activity SETVI” value ([13]; 63 g ai/ha) was 0, the “Post-emerge Herbicidal Activity SETVI” value ([13]; 250 g ai/ha) was 0 and the “Post-emerge Herbicidal Activity IPOHE” value ([14]; 63 g ai/ha) was 0. The “Post-emerge Herbicidal Activity IPOHE” value ([14]; 250 g ai/ha) was 0, the “Post-emerge Herbicidal Activity SORHA” value ([15]; 63 g ai/ha) was 0 and the “Post-emerge Herbicidal Activity SORHA” value ([15]; 250 g ai/ha) was 0. The “Post-emerge Herbicidal Activity CHEAL” value ([16]; 63 g ai/ha) was 30, the “Post-emerge Herbicidal Activity CHEAL” value ([16]; 250 g ai/ha) was 70 and the “Post-emerge Herbicidal Activity DIGSA” value ([17]; 63 g ai/ha) was 0. The “Post-emerge Herbicidal Activity DIGSA” value ([17]; 250 g ai/ha) was 0, the “Post-emerge Herbicidal Activity AMARE” value [18, 23] was 60 and the “Post-emerge Herbicidal Activity AMARE” value [18, 24] was 60. For the same molecule, the “Post-emerge Herbicidal Activity CASOB” value ([19]; 63 g ai/ha) was 0, the “Post-emerge Herbicidal Activity CASOB” value ([19]; 250 g ai/ha) was 10 and the “Post-emerge Herbicidal Activity ABUTH” value ([20]; 63 g ai/ha) was 40. For the same molecule, the “Post-emerge Herbicidal Activity ABUTH” value ([20]; 250 g ai/ha) was 70, the “Post-emerge Herbicidal Activity CORN” value ([21]; 63 g ai/ha) was 0 and the “Post-emerge Herbicidal Activity CORN” value ([21]; 250 g ai/ha) was 10. The “Post-emerge Herbicidal Activity RICE” value ([22]; 63 g ai/ha) was 0 and the “Post-emerge Herbicidal Activity RICE” value ([22]; 250 g ai/ha) was 20.
